Measured values reported in the supplement of paper PMC11061612.

Legend:
Experiment in all cases: combination Emax (second highest fraction inhibited in the dose matrix, 72 h); higher = more inhibition; extreme values may be limits of the assay
A673 (Ewing's Sarcoma) = tested on: A673 (Ewing's Sarcoma)
Procedure, shortened: (§1)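 Bliss excess equals the observed combination effect minus the expected value EA + EB − EA·EB, where EA and EB are the effects of each agent alone. Combination Emax is the second-highest inhibition within the matrix. Inhibition was scaled from CellTiter-Glo 2.0 luminescence, with 0 set by vehicle wells and 1 by blank wells, after 72 hours of two-drug dosing of cells plated in 1536-well plates.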

GAMG (Glioblastoma) = tested on: GAMG (Glioblastoma)
Procedure, shortened: as §1

LOXIMVI (Melanoma) = tested on: LOXIMVI (Melanoma)
Procedure, shortened: as §1

[1] = tested on: LS-123 (Colorectal Carcinoma)
Procedure, shortened: as §1

[2] = tested on: NCI-H524 (Small Cell Lung Carcinoma)
Procedure, shortened: as §1

[3] = tested on: OVCAR-5 (Ovarian Carcinoma)
Procedure, shortened: as §1

SMILES	combination Emax (A673 (Ewing's Sarcoma))	combination Emax (GAMG (Glioblastoma))	combination Emax (LOXIMVI (Melanoma))	combination Emax [1]	combination Emax [2]	combination Emax [3]
Cc1c2c(nn1C)CSCc1cc(n(C)n1)CSc1cc(c3ccccc3c1)OCCCc1c(C(=O)O)n(C)c3c-2c(Cl)ccc13 [AZD5991] + CC(=O)O[C@H]1C(=O)[C@@]2(C)[C@H]([C@H](OC(=O)c3ccccc3)[C@]3(O)C[C@H](OC(=O)[C@H](O)[C@@H](NC(=O)c4ccccc4)c4ccccc4)C(C)=C1C3(C)C)[C@]1(OC(C)=O)CO[C@@H]1C[C@@H]2O [Paclitaxel] (first compound max 1 µM, 7x7, partner max 3 µM)	0.95	0.999	0.755	0.463	0.929	0.707
C[C@@H](Oc1cc(-c2cnn(C3CCNCC3)c2)cnc1N)c1c(Cl)ccc(F)c1Cl [Crizotinib] + Cn1cnc2c(F)c(Nc3ccc(Br)cc3Cl)c(C(=O)NOCCO)cc21 [Selumetinib] (first compound max 10 µM, 7x7, partner max 10 µM)	0.742	0.54	0.926	0.62	0.983	0.7
C[C@@H]1COCCN1c1cc(C2([S@](C)(=N)=O)CC2)nc(-c2ccnc3[nH]ccc23)n1 [AZD6738] + C1CC(C1)(C(=O)[O-])C(=O)[O-].N.N.[Pt+2] [Carboplatin] (first compound max 10 µM, 7x7, partner max 10 µM)	0.781	0.611	0.619	0.626	0.687	0.75
C=CCn1c(=O)c2cnc(Nc3ccc(N4CCN(C)CC4)cc3)nc2n1-c1cccc(C(C)(C)O)n1 [AZD1775] + CCc1c2c(nc3ccc(O)cc13)-c1cc3c(c(=O)n1C2)COC(=O)[C@]3(O)CC [SN-38] (first compound max 1 µM, partner max 0.3 µM)	0.973	0.916	0.863	0.828	0.76	0.77
CS(=O)(=O)CCNCc1ccc(-c2ccc3ncnc(Nc4ccc(OCc5cccc(F)c5)c(Cl)c4)c3c2)o1 [Lapatinib] + NC1(c2ccc(-c3nc4ccn5c(=O)[nH]nc5c4cc3-c3ccccc3)cc2)CCC1 [MK-2206] (first compound max 10 µM, 7x7, partner max 10 µM)	0.363	0.862	0.967	0.629	0.941	0.787
C[C@@H](Nc1cc(F)cc(F)c1)c1cc(C(=O)N(C)C)cc2c(=O)cc(N3CCOCC3)oc12 [AZD8186] + CC(=O)c1c(C)c2cnc(Nc3ccc(N4CCNCC4)cn3)nc2n(C2CCCC2)c1=O [Palbociclib] (first compound max 10 µM, 7x7, partner max 10 µM)	0.479	0.723	0.623	0.478	0.571	0.55
O=C(c1cc(Cc2n[nH]c(=O)c3ccccc23)ccc1F)N1CCN(C(=O)C2CC2)CC1 [Olaparib] + Cc1c2c(nn1C)CSCc1cc(n(C)n1)CSc1cc(c3ccccc3c1)OCCCc1c(C(=O)O)n(C)c3c-2c(Cl)ccc13 [AZD5991] (first compound max 10 µM, 7x7, partner max 1 µM)	0.446	0.0955	0.311	0.127	0.426	0.122
O=C(c1cc(Cc2n[nH]c(=O)c3ccccc23)ccc1F)N1CCN(C(=O)C2CC2)CC1 [Olaparib] + CC1(C)CCC(CN2CCN(c3ccc(C(=O)NS(=O)(=O)c4ccc(NCC5CCOCC5)c([N+](=O)[O-])c4)c(Oc4cnc5[nH]ccc5c4)c3)CC2)=C(c2ccc(Cl)cc2)C1 [Venetoclax] (first compound max 10 µM, 7x7, partner max 1 µM)	0.501	0.0955	0.352	0.191	0.206	0.0569
C[C@@H]1COCCN1c1cc(C2([S@](C)(=N)=O)CC2)nc(-c2ccnc3[nH]ccc23)n1 [AZD6738] + Nc1ccn([C@@H]2O[C@H](CO)[C@@H](O)C2(F)F)c(=O)n1 [Gemcitabine] (first compound max 10 µM, 7x7, partner max 0.3 µM)		0.87	0.92	0.705	0.994	0.743
O=C(c1cc(Cc2n[nH]c(=O)c3ccccc23)ccc1F)N1CCN(C(=O)C2CC2)CC1 [Olaparib] + COc1nnc2ccc(N3CCC(c4ccc(OCCN5CCN(C)C(=O)[C@H]5C)cc4)CC3)nn12 [AZD5153] (first compound max 10 µM, 7x7, partner max 1 µM)	0.578	0.448	0.864	0.359	0.542	0.449
